In patent publication US20260364072A1, “METHODS FOR PROMOTING EXPANSION OF HUMAN CD34+ CELLS IN VIVO AND FOR PROMOTING NEURAL REGENERATION” (THE REGENTS OF THE UNIVERSITY OF CALIFORNIA, priority 2023, published 2026):
Counter-ions that a name gives are not always drawn.

Experiments:
[1] = system: ADAR1 and MCL1 transcripts; assay: Comparative in vivo study with fedratinib; parameters: species or system human cells in mice; conditions: twice daily oral 60 mg/kg, two weeks
Description: Additional aliquots of CD34+ cells from bone marrow and/or spleens of treated and control animals were used for serial transplantation assays after Rebecsinib treatment, including engraftment studies and overall survival assays. In a separate cohort of animals, mice were treated with Fedratinib for two weeks (twice daily oral delivery at 60 mg/kg) as a positive control for modulation of ADAR1 expression and activity.^8

[2] = system: MDA-MB-231 cells; assay: IVIS total flux in MDA-MB-231 transplanted mice; type: in vivo, human cells in Rag2 neonatal mice; conditions: 0 day after completing the dosing plan; compared to vehicle control
Description: FIG. 5 graphically illustrates IVIS (In Vivo Imaging System) results of ADAR1-MDA-MB-231 transplanted Rag2 mouse models, and IVIS images were taken at 6 weeks after transplant (FIG. 5A), after two weeks of therapy (FIG. 5B), and one week after therapy was completed (FIG. 5C), as discussed in further detail in Example 5, below.
Ten thousand (10k) MDA-MB-231 cells were intrahepatically transplanted into Rag2 neonatal mice, then treated with fedratinib, rebecsinib, or a combination of fedratinib and rebecsinib. IVIS images were taken at 6 weeks after transplant (FIG. 5A), after two weeks of therapy (FIG. 5B), and one week after therapy was completed (FIG. 5C). The IVIS signals from the mice were graphed by groups.
The IVIS images of these mice were taken at 0 day after completing the dosing plan and are graphed by their total flux.

[3] = system: hematologic malignancies; conditions: Phase 1, cited from earlier work
[4] = system: solid tumors; conditions: cited from earlier work

Compound: Cc1cnc(Nc2ccc(OCCN3CCCC3)cc2)nc1Nc1cccc(S(=O)(=O)NC(C)(C)C)c1 [fedratinib, N-tert-butyl-3-[(5-methyl2-{[4-(2-pyrrolidin-1-ylethoxy)phenyl]amino}pyrimidin-4-yl)amino]benzenesulfonamide dihydrochloride monohydrate]
- ADAR1 expression [1]: significantly reduced ADAR1 expression
- MCL1 splicing [1]: no alteration of MCL1 splicing
- total flux (IVIS) [2]: significantly decreased

Compound: H3B-8800
- durable remissions [3]: not sufficiently potent to induce durable remissions
- red blood transfusion independence ([3]; efficacy dependent on SRSF2 mutations): red blood transfusion independence in some patients

Compound: CC[C@H](O)[C@@H](C)[C@H]1O[C@@H]1C[C@@](C)(O)/C=C/C=C(\C)[C@H]1OC(=O)C[C@H](O)CC[C@@](C)(O)[C@@H](OC(=O)N2CCN(C3CCCCCC3)CC2)/C=C/[C@@H]1C [E7107]
- reversible optic neuritis ([4]; patients with solid tumors): 2 of 26
- stability ([4]; related to optic neuritis): compound instability
